Laboratory results reported in patent publication US20260159512A1, “BCAT2 INHIBITORS” (AGIOS PHARMACEUTICALS, INC., priority 2021, published 2026).
pIC50: −log10 of the molar value.

Tests used:
Details in all cases: average where tested multiple times
BCAT2 [1] = biological target: T1, BCAT2 (Homo sapiens, UniProt O15382); assay: BCAT2 in vitro cell inhibition using engineered A549 cells (KMV cell assay, 13C6-KMV by LC-MS/MS); assay type: cell-based; parameters: The result was an engineered A549 cell line that expressed endogenous BCAT2; endogenous in cells; host or cells: A549 cells with MUT and BCAT1 knocked out by CRISPR/CAS9
T1 sequence (O15382 28-392): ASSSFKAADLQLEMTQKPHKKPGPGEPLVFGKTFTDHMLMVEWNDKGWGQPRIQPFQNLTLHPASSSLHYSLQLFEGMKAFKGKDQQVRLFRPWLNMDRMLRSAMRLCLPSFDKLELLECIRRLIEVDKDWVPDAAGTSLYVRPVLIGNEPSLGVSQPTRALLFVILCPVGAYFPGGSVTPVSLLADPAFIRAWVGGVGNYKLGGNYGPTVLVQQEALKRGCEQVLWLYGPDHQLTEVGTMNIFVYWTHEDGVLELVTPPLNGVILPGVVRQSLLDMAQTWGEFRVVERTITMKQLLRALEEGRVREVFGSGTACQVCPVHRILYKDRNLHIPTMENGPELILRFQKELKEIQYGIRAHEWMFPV

hBCAT1 = biological target: T2, hBCAT1 (Homo sapiens, UniProt P54687); assay: BCAT1 in vitro enzyme inhibition assay (resazurin/diaphorase-coupled fluorescence); assay type: biochemical
T2 sequence (P54687 1-386): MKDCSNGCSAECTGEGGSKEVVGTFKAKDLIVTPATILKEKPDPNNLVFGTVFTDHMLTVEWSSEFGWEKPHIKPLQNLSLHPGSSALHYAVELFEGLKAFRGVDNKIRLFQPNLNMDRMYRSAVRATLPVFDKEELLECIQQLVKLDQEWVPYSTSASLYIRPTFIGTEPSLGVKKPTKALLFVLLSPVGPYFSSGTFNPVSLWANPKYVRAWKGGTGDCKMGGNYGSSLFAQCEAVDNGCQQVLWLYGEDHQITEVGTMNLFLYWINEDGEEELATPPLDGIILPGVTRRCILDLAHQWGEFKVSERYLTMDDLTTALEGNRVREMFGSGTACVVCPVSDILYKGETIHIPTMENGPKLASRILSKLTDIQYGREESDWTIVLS
How it was run: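 Human BCAT1 activity read by resazurin/diaphorase-coupled fluorescence. Compounds added from 50× DMSO stocks at 1:50, giving 10-point 3-fold titrations from 100 μM top final concentration. Run in technical duplicate; repeat tests averaged.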

BCAT2 [2] = biological target: T1, BCAT2; assay: BCAT2 in vitro enzyme inhibition assay (resazurin/diaphorase-coupled fluorescence); assay type: biochemical
How it was run: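 Coupled fluorescence readout: glutamate formed from L-leucine/α-ketoglutarate transamination drives GDH/NAD/diaphorase reduction of resazurin (Ex 540/Em 590). Human BCAT2 was first exposed 1 h at room temperature to compound, top final 100 μM in 3-fold, 10-point series; substrate reaction ran 1 h before SDS quench, in technical duplicate with DMSO max and enzyme-free min controls.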

pIC50 (BCAT2 [1])	pIC50 (hBCAT1)	pIC50 (BCAT2 [2])	Compound
≥ 7.00	> 6.30	≥ 7.00	CO[C@H]1C[C@@H](NC(=O)c2ncc(Cl)s2)C[C@@H](n2c(-c3ccccc3F)nc3cnc(-c4nc[nH]n4)cc32)C1 (stereo in doubt) [Example 420, 5-chloro-N-((1S,3R,5S)-3-(2-(2-fluorophenyl)-6-(1H-1,2,4-triazol-3-yl)-1H-imidazo[4,5-c]pyridin-1-yl)-5-methoxycyclohexyl)thiazole-2-carboxamide]
≥ 7.00	> 6.30	≥ 7.00	CO[C@@H]1C[C@@H](NC(=O)c2ncc(Cl)s2)C[C@@H](n2c(-c3ccccc3F)nc3cnc(-n4nccn4)cc32)C1 (stereo in doubt) [Example 424, 5-chloro-N-((1S,3R,5R)-3-(2-(2-fluorophenyl)-6-(2H-1,2,3-triazol-2-yl)-1H-imidazo[4,5-c]pyridin-1-yl)-5-methoxycyclohexyl)thiazole-2-carboxamide]
6.30 to 7.00	6.00 to 6.30	≥ 7.00	CO[C@@H]1C[C@@H](NC(=O)c2ncc(Cl)s2)C[C@@H](n2c(CC(C)C)nc3cnc(-c4ccccn4)cc32)C1 (stereo in doubt) [Example 426, 5-chloro-N-((1S,3R,5R)-3-(2-isobutyl-6-(pyridin-2-yl)-1H-imidazo[4,5-c]pyridin-1-yl)-5-methoxycyclohexyl)thiazole-2-carboxamide]
≥ 7.00	> 6.30	≥ 7.00	CO[C@H]1C[C@@H](NC(=O)c2ncc(Cl)s2)C[C@@H](n2c(CC(C)C)nc3cnc(-c4nc[nH]n4)cc32)C1 (stereo in doubt) [Example 432, 5-chloro-N-((1S,3R,5S)-3-(2-isobutyl-6-(1H-1,2,4-triazol-3-yl)-1H-imidazo[4,5-c]pyridin-1-yl)-5-methoxycyclohexyl)thiazole-2-carboxamide]
6.30 to 7.00	5.30 to 6.00	≥ 7.00	O=C(NC1CCCC(n2c(-c3ccccn3)nc3cnc(-c4nnco4)cc32)C1)c1ccc(Br)s1 (stereo not drawn) [Example 1, N-(3-(6-(1,3,4-oxadiazol-2-yl)-2-(pyridin-2-yl)-1H-imidazo[4,5-c]pyridin-1-yl)cyclohexyl)-5-bromothiophene-2-carboxamide]
6.30 to 7.00	6.00 to 6.30	≥ 7.00	O=C(NC1CCCC(n2c(-c3ncccc3F)nc3cnc(-c4nnco4)cc32)C1)c1ccc(Br)s1 (stereo not drawn) [Example 2, 5-bromo-N-(3-(2-(3-fluoropyridin-2-yl)-6-(1,3,4-oxadiazol-2-yl)-1H-imidazo[4,5-c]pyridin-1-yl)cyclohexyl)thiophene-2-carboxamide]
6.30 to 7.00	5.30 to 6.00	≥ 7.00	O=C(NC1CCCC(n2c(-c3ccccn3)nc3cnc(-c4cnco4)cc32)C1)c1ccc(Br)s1 (stereo not drawn) [Example 3, 5-bromo-N-(3-(6-(oxazol-5-yl)-2-(pyridin-2-yl)-1H-imidazo[4,5-c]pyridin-1-yl)cyclohexyl)thiophene-2-carboxamide]
6.00 to 6.30	< 5.30	≥ 7.00	O=C(NC1CCCCC(n2c(-c3ccccn3)nc3cnc(-n4nccn4)cc32)C1)c1ncc(C(F)F)s1 (stereo not drawn) [Example 4, 5-(difluoromethyl)-N-(3-(2-(pyridin-2-yl)-6-(2H-1,2,3-triazol-2-yl)-1H-imidazo[4,5-c]pyridin-1-yl)cycloheptyl)thiazole-2-carboxamide]
≥ 7.00	> 6.30	≥ 7.00	O=C(N[C@H]1CCC[C@@H](n2c(-c3ccccn3)nc3cnc(-c4ncco4)cc32)C1)c1ccc(Br)s1 [Example 5, 5-bromo-N-((1S,3R)-3-(6-(oxazol-2-yl)-2-(pyridin-2-yl)-1H-imidazo[4,5-c]pyridin-1-yl)cyclohexyl)thiophene-2-carboxamide]
≥ 7.00	> 6.30	≥ 7.00	O=C(N[C@H]1CCC[C@@H](n2c(-c3ncccc3F)nc3cnc(-c4ncco4)cc32)C1)c1ccc(Br)s1 [Example 6, 5-bromo-N-((1S,3R)-3-(2-(3-fluoropyridin-2-yl)-6-(oxazol-2-yl)-1H-imidazo[4,5-c]pyridin-1-yl)cyclohexyl)thiophene-2-carboxamide]
